Source: patent publication EP3262942A1, “SELENODIARYLS FOR USE AS MICROBICIDE OR AS MEDICINE” (Evonik Degussa GmbH, priority 2016, dated 2018)

Tests used:
Candida albicans = assay: Growth test in microtiter plates, HA medium, 24 h, visual evaluation; assay type: cell-based; parameters: key: +: kein Wachstum im Vergleich zur Wachstumskontrolle; -: Wachstum wie Wachstumskontrolle
Mucor miehei = assay: as above; assay type: cell-based; parameters: key to Aktivität gegenüber M. miehei: +: kein Wachstum im Vergleich zur Wachstumskontrolle; -: Wachstum wie Wachstumskontrolle
Penicillium notatum = assay: as above; assay type: cell-based; parameters: key: +: kein Wachstum im Vergleich zur Wachstumskontrolle; -: Wachstum wie Wachstumskontrolle
Paecilomyces variotii = assay: as above; assay type: cell-based; parameters: key: +: kein Wachstum im Vergleich zur Wachstumskontrolle; -: Wachstum wie Wachstumskontrolle
M. grisea H2O = assay: microbe, parasite or virus in culture; assay type: cell-based, Magnaporthe grisea; conditions: Pyricularia grisea, H2O, 24 h, read-out: Aktivität gegenüber M. grisea H2O
Botrytis cinerea = assay: microbe, parasite or virus in culture; assay type: cell-based; conditions: Botrytis cinerea, 24 h, read-out: Aktivität gegenüber B. cinerea
P. infestans = assay: microbe, parasite or virus in culture; assay type: cell-based, Phytophthora infestans; conditions: for inhibition of growth at 5 µg/mL / inhibition of growth at 10 µg/mL / inhibition of growth at 25 µg/mL / inhibition of growth at 50 µg/mL: Phytophthora infestans, 24 h, read-out: Aktivität gegenüber P. infestans
M. grisea CM = assay: microbe, parasite or virus in culture; assay type: cell-based, Magnaporthe grisea; conditions: Pyricularia grisea, 24 h, read-out: Aktivität gegenüber M. grisea CM
Lepidium sativum = assay: Crop plant growth test, seeds on filter discs, 4 days, visual evaluation; assay type: in vivo
Summary of the method: (§1)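 Compounds dried from DMSO onto filter discs; about 12 seeds per well with 200 µl sterile tap water, incubated 4 days in a humid chamber under 16 h light/8 h dark. Visual scoring: + means at least 75 % growth inhibition versus control, − means less than 75 %.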

Setaria italica = assay: as above; assay type: in vivo
Summary of the method: as §1

M. grisea = assay type: cell-based, Magnaporthe grisea; conditions: medium (H2O or CM) not stated
[1] = tested on: alle getesteten Pathogene; assay type: cell-based; conditions: 5-50 µg/mL

| SMILES | Aktivität gegenüber C. albicans (Candida albicans; 10µg/mL) | Aktivität gegenüber C. albicans (Candida albicans; 50µg/mL) | Aktivität gegenüber M. miehei (Mucor miehei; 10µg/mL) | Aktivität gegenüber M. miehei (Mucor miehei; 50µg/mL) | Aktivität gegenüber P. notatum (Penicillium notatum; 10µg/mL) | Aktivität gegenüber P. notatum (Penicillium notatum; 50µg/mL) | Aktivität gegenüber P. variotii (Paecilomyces variotii; 10µg/mL) | Aktivität gegenüber P. variotii (Paecilomyces variotii; 50µg/mL) | inhibition of growth at 5 µg/mL (M. grisea H2O) [%] | inhibition of growth at 10 µg/mL (M. grisea H2O) [%] | inhibition of growth at 25 µg/mL (M. grisea H2O) [%] | inhibition of growth at 50 µg/mL (M. grisea H2O) [%] | inhibition of growth at 5 µg/mL (Botrytis cinerea) [%] | inhibition of growth at 10 µg/mL (Botrytis cinerea) [%] | inhibition of growth at 25 µg/mL (Botrytis cinerea) [%] | inhibition of growth at 50 µg/mL (Botrytis cinerea) [%] | inhibition of growth at 5 µg/mL (P. infestans) [%] | inhibition of growth at 10 µg/mL (P. infestans) [%] | inhibition of growth at 25 µg/mL (P. infestans) [%] | inhibition of growth at 50 µg/mL (P. infestans) [%] | further results |
| --- | --- | --- | --- | --- | --- | --- | --- | --- | --- | --- | --- | --- | --- | --- | --- | --- | --- | --- | --- | --- | --- |
| Cc1cc(C)c(O)c([Se]c2cc(C)cc(C)c2O)c1 [Verbindung 12, Bis(3,5-dimethyl-2-hydroxyphenyl)selen] | - | - | - | - | - | - | - | - | 0 to 25 | 0 to 25 | 0 to 25 | 0 to 25 | 0 to 25 | 0 to 25 | 0 to 25 | 0 to 25 | 0 to 25 | > 75 | > 75 | > 75 | inhibition of growth at 5 µg/mL (M. grisea CM): > 75%; inhibition of growth at 10 µg/mL (M. grisea CM): > 75%; inhibition of growth at 25 µg/mL (M. grisea CM): > 75%; inhibition of growth at 50 µg/mL (M. grisea CM): > 75%; Aktivität gegenüber Nutzpflanzen: L. sativum (Lepidium sativum; 10µg/R): - (weniger als 75 % Wachstumshemmung im Vergleich zur Kontrolle); Aktivität gegenüber Nutzpflanzen: L. sativum (Lepidium sativum; 20µg/R): - (weniger als 75 % Wachstumshemmung im Vergleich zur Kontrolle); Aktivität gegenüber Nutzpflanzen: L. sativum (Lepidium sativum; 50µg/R): - (weniger als 75 % Wachstumshemmung im Vergleich zur Kontrolle); Aktivität gegenüber Nutzpflanzen: S. italica (Setaria italica; 10µg/R): - (weniger als 75 % Wachstumshemmung im Vergleich zur Kontrolle); Aktivität gegenüber Nutzpflanzen: S. italica (Setaria italica; 20µg/R): - (weniger als 75 % Wachstumshemmung im Vergleich zur Kontrolle); Aktivität gegenüber Nutzpflanzen: S. italica (Setaria italica; 50µg/R): - (weniger als 75 % Wachstumshemmung im Vergleich zur Kontrolle); Aktivität gegenüber M. grisea (M. grisea): hohe Aktivität |
| Cc1cc(C(C)(C)C)cc([Se]c2cc(C(C)(C)C)cc(C)c2O)c1O [Verbindung 13, Di(5-tert-butyl-2-hydroxy-3-methylphenyl)selen] | - | - | - | - | - | - | - | - | > 75 | > 75 | > 75 | > 75 | 0 to 25 | 0 to 25 | 0 to 25 | 0 to 25 | 0 to 25 | 0 to 25 | 0 to 25 | 0 to 25 | inhibition of growth at 5 µg/mL (M. grisea CM): > 75%; inhibition of growth at 10 µg/mL (M. grisea CM): > 75%; inhibition of growth at 25 µg/mL (M. grisea CM): > 75%; inhibition of growth at 50 µg/mL (M. grisea CM): > 75%; Aktivität gegenüber Nutzpflanzen: L. sativum (Lepidium sativum; 10µg/R): - (weniger als 75 % Wachstumshemmung im Vergleich zur Kontrolle); Aktivität gegenüber Nutzpflanzen: L. sativum (Lepidium sativum; 20µg/R): - (weniger als 75 % Wachstumshemmung im Vergleich zur Kontrolle); Aktivität gegenüber Nutzpflanzen: L. sativum (Lepidium sativum; 50µg/R): - (weniger als 75 % Wachstumshemmung im Vergleich zur Kontrolle); Aktivität gegenüber Nutzpflanzen: S. italica (Setaria italica; 10µg/R): - (weniger als 75 % Wachstumshemmung im Vergleich zur Kontrolle); Aktivität gegenüber Nutzpflanzen: S. italica (Setaria italica; 20µg/R): - (weniger als 75 % Wachstumshemmung im Vergleich zur Kontrolle); Aktivität gegenüber Nutzpflanzen: S. italica (Setaria italica; 50µg/R): - (weniger als 75 % Wachstumshemmung im Vergleich zur Kontrolle); Aktivität gegenüber M. grisea (M. grisea): hohe Aktivität |
| COc1cc(OC)c([Se]c2cc(OC)c(OC)cc2OC)cc1OC [Verbindung 26, Bis(2,4,5-trimethoxyphenyl)selen] | - | - | - | + | - | - | - | - | 25 to 50 | > 75 | > 75 | > 75 | 0 to 25 | 0 to 25 | 0 to 25 | 0 to 25 | 0 to 25 | 0 to 25 | 0 to 25 | 0 to 25 | Aktivität im Wachstumstest mit M. miehei (Mucor miehei; […]): mikrobizide Wirksamkeit; Wirksamkeit gegenüber P. infestans (P. infestans; […]): keine Wirkung; inhibition of growth at 5 µg/mL (M. grisea CM): 25 to 50%; inhibition of growth at 10 µg/mL (M. grisea CM): > 75%; inhibition of growth at 25 µg/mL (M. grisea CM): > 75%; inhibition of growth at 50 µg/mL (M. grisea CM): > 75%; Aktivität gegenüber Nutzpflanzen: L. sativum (Lepidium sativum; 10µg/R): - (weniger als 75 % Wachstumshemmung im Vergleich zur Kontrolle); Aktivität gegenüber Nutzpflanzen: L. sativum (Lepidium sativum; 20µg/R): - (weniger als 75 % Wachstumshemmung im Vergleich zur Kontrolle); Aktivität gegenüber Nutzpflanzen: L. sativum (Lepidium sativum; 50µg/R): - (weniger als 75 % Wachstumshemmung im Vergleich zur Kontrolle); Aktivität gegenüber Nutzpflanzen: S. italica (Setaria italica; 10µg/R): - (weniger als 75 % Wachstumshemmung im Vergleich zur Kontrolle); Aktivität gegenüber Nutzpflanzen: S. italica (Setaria italica; 20µg/R): - (weniger als 75 % Wachstumshemmung im Vergleich zur Kontrolle); Aktivität gegenüber Nutzpflanzen: S. italica (Setaria italica; 50µg/R): - (weniger als 75 % Wachstumshemmung im Vergleich zur Kontrolle); Aktivität im Wachstums- und Keimungshemmungstest gegen die getesteten Pathogene [1]: fungizider Effekt |
